The values that follow come from ChEMBL document CHEMBL1146629, “Synthesis and evaluation of phosphoramidate amino acid-based inhibitors of sialyltransferases” (Bioorg Med Chem Lett, 2003).

Assay [1] deals with T1, Beta-galactoside alpha-2,6-sialyltransferase 1 (Rattus norvegicus, UniProt P13721).
T1 sequence (P13721 whole entry): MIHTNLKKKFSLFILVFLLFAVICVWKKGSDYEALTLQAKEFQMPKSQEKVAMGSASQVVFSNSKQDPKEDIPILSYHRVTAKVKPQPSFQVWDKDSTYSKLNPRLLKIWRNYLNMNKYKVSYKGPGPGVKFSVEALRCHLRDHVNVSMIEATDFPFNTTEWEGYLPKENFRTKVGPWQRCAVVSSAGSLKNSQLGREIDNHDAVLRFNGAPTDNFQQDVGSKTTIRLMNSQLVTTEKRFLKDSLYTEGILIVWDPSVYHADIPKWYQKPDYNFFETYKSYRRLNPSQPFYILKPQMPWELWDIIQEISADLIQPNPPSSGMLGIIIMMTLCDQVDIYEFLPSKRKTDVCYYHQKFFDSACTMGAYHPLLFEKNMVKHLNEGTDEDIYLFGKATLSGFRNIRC
Put plainly: Inhibitory activity evaluated against alpha-2,6-sialyltransferase from rat liver.

Assay [2] addresses T2, CMP-N-acetylneuraminate-beta-1,4-galactoside alpha-2,3-sialyltransferase (Rattus norvegicus, UniProt Q02734).
T2 sequence (Q02734 whole entry): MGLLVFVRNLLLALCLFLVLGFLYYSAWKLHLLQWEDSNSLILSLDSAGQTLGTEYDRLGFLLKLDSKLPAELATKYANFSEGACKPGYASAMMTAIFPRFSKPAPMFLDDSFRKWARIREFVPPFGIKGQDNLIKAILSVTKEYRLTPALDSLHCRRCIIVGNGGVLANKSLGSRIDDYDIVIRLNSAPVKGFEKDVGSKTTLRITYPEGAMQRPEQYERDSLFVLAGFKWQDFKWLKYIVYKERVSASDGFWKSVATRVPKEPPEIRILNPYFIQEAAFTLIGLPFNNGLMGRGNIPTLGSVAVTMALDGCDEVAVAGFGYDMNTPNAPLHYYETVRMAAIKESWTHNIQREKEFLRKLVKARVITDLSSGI
Put plainly: Inhibitory activity evaluated against alpha-2,3-sialyltransferase from rat liver.

Each structure is given as a SMILES string.

The term Ki denotes a measure of affinity in units of concentration, obtained from inhibition or displacement. The low end stands for tighter binding, the high end for weaker binding. `Nc1ccn([C@@H]2O[C@H](COP(=O)(O)O)[C@@H](O)[C@H]2O)c(=O)n1`: the inhibitory constant (Ki) in assay [1] came to 64 µM; in assay [2], 65 µM.
`Nc1ccn(C2O[C@H](COP(=O)(O)OCC(=O)O)C(O)[C@H]2O)c(=O)n1` (single isomer, unassigned): the Ki was 370 µM in assay [1] and 710 µM in assay [2].
The corresponding values for `Nc1ccn(C2O[C@H](COP(=O)(O)N[C@@H](Cc3c[nH]c4ccccc34)C(=O)O)C(O)[C@H]2O)c(=O)n1` (single isomer, unassigned) are 730 µM and 300 µM.
For `Nc1ccn(C2O[C@H](COP(=O)(O)NCC(=O)O)C(O)[C@H]2O)c(=O)n1` (single isomer, unassigned), the Ki in assay [1] came to 2400 µM; in assay [2] it was 5300 µM.
The corresponding values for `Nc1ccn(C2O[C@H](COP(=O)(O)N[C@@H](CC(=O)O)C(=O)O)C(O)[C@H]2O)c(=O)n1` (single isomer, unassigned) are 2200 µM and 5100 µM.
The like results for `CC(C)C[C@H](NP(=O)(O)OC[C@H]1OC(n2ccc(N)nc2=O)[C@H](O)C1O)C(=O)O` (single isomer, unassigned) were, in that order, 2500 µM and 900 µM.
On to `Nc1ccn(C2O[C@H](COP(=O)(O)N[C@@H](Cc3ccccc3)C(=O)O)C(O)[C@H]2O)c(=O)n1` (single isomer, unassigned), for which the figures for the Ki in assay [1] and in assay [2] were 3800 µM and 2300 µM, respectively.
As for `C[C@H](NP(=O)(O)OC[C@H]1OC(n2ccc(N)nc2=O)[C@H](O)C1O)C(=O)O` (single isomer, unassigned), the inhibitory constant (Ki) in assay [1] came to 1700 µM; in assay [2] it was 2300 µM.
